The numbers were not newly measured in patent publication US20020198176A1, “Treatment of psoriasis with matrix metalloproteinase inhibitors” (priority 2000, published 2002), which cites them from elsewhere.

The data set concerns MMP. As to conditions: in vitro; read-out: IC50 (50% reduction of the MMP enzymatic activity in vitro).

SMILES strings stand for the structures. pIC50: −log10 of the molar value.

Turning to `O=C(C[C@H](CSc1ccccc1)C(=O)O)c1ccc(-c2ccc(Cl)cc2)cc1` [BAY 12-9566], the negative logarithm of the IC50 (pIC50) (in general, the IC50 on a negative log10 scale, so that one unit is a factor of ten) is 4.22 to 5.66.
